Consider two molecules from patent publication US20070099822A1, “Regulation of tissue mineralization and phosphate metabolism by asarm peptides” (priority 2003, published 2007).

Entries after “also recorded” stand apart in the source; their conditions may differ.

Test [1] relates to mouse osteoblast cell-line 2T3. Nature of the test: Mineralized bone matrix formation assay (von Kossa), BMP2-induced. Format: cell-based. The conditions noted are these: 2T3 cells; for effect on BMP2-mediated mineralization (von Kossa staining): Hu-MEPE 10-800 ng/mL, ASARM-peptide 60 and 300 ng/mL, control peptide 300 ng/mL. An excerpt:
Mineralized bone matrix formation assay. A mouse osteoblast cell-line (2T3-cells) were monitored using a mineralized matrix formation assay as described by Bhargava et al. (Ultrastructural analysis of bone nodules formed in vitro by isolated fetal rat calvaria cells. Bone 9:155-63, 1988) and cultured as described previously (Bhargava et al., supra; Chen et al. Differential roles for bone morphogenetic protein (BMP) receptor type IB and IA in differentiation and specification of mesenchymal precursor cells to osteoblast and adipocyte lineages. J Cell Biol 142:295-305, 1998; and Zhao, et al. Bone morphogenetic protein receptor signaling is necessary for normal murine postnatal bone formation. J Cell Biol 157:1049-60, 2002). Mineralization of the murine osteoblastic 2T3 cell-line has been extensively studied using physical techniques, electron microscopy and histological techniques. This cell line (2T3) undergoes exogenous BMP2-induced mineralized-matrix indistinguishable from normal bone-mineral hydroxyapatite in-vitro (Bhargava et al., supra; Chen et al., supra; and Zhao et al., supra). The cells were plated in 24-well culture plates at density of 2×10^4 cells/well and cultured with minimal essential medium (MEM) supplemented with 10% FCS. When the cells reached confluency (day 0), the medium was changed to MEM containing 5% FCS, 100 μg/mL ascorbic acid and 5 mM β-glycerol phosphate with or without 100 ng/mL of BMP-2. The effects of Hu-MEPE, MEPE ASARM-peptide and control peptide at different doses (see results section) in the absence and presence of BMP2 were measured using the von Kossa stain for mineralization. The medium was changed every other day and fresh reagents were added. Von Kossa stain of mineralized bone matrix was performed as follows. The cell cultures were washed with PBS twice, fixed in phosphate buffered formalin for 10 min, and then washed with water, and serially dehydrated in 70%, 95%, and 100% ethanol, twice each and air dried. The plates were rehydrated from 100% to 95% to 80% ethanol to water before staining. The water was removed, a 2% silver nitrate solution was added, and the plates were exposed to sunlight for 20 min, after which the plates were rinsed with water. 5% sodium thiosulfate was added for 3 min and the plates were then rinsed with water. The modified van Gieson stain was then used as a counterstain after the von Kossa stain. The unmineralized collagen matrix can be recognized by the yellow/red van Gieson stain. The acid fuchsin solution (5 part of 1% acid fuchsin, 95 part of picric acid, and 0.25 part of 12 M HCl) was added for 5 min. The plates were washed with water, and then 2×95% ethanol and 2×100% ethanol, and dried for image analysis. The area of von Kossa stained matrix was quantitated as previously described (Chen et al., supra). Briefly matrix was quantified by automated image analysis using a video analysis program (Jandel Scientific, San Rafael Calif.) and also a Bio-Rad (Hercules, Calif.) Quantity-1 image analysis capture program. A video screen camera (CCD/RGB; Sony Corp., Park Ridge, N.J.) linked to a microscope (model BH2; Olympus Corp., Precision Instruments Division, Lake Success, N.Y.) equipped with metallurgical lens was used to image plates.

A further test concerns the target T1, MEPE-PHEX interaction (Homo sapiens, UniProt P78562).
T1 construct: to generate a soluble, secreted form of PHEX; made in house; host or cells: secPHEX: mammalian cells (gift, University of Montreal); MEPE: S. frugiperda insect cells
T1 sequence (P78562 46-749 limits assumed): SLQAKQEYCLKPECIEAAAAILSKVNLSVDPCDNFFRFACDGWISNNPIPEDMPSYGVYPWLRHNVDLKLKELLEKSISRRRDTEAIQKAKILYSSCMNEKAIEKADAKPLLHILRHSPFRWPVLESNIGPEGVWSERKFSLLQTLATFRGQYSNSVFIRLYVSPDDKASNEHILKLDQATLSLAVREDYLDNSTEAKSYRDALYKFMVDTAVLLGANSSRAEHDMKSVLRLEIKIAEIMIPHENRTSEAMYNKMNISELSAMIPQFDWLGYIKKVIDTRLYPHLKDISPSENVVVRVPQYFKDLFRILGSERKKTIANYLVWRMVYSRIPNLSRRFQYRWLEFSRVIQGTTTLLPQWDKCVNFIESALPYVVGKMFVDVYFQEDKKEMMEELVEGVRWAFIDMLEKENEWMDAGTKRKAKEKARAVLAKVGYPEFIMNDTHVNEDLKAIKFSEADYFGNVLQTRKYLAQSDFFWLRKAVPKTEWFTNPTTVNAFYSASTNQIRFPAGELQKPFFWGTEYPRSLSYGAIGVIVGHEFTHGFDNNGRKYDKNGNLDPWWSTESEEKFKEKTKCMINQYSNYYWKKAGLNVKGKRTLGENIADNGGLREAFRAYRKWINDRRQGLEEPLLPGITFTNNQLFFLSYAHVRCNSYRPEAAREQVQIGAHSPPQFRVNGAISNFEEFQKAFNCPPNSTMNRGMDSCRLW
The test is described as follows: Surface plasmon resonance, peptide solution competition of secPHEX-MEPE binding. An excerpt:
Surface Plasmon Resonance: Synthetic peptides & competitive PHEX-MEPE binding studies. For these experiments CM-5 chips containing flow-cells immobilized with MEPE, PHEX and IgG ligands at 6000 RU were used. Just prior to SPR injection, stock solution of specific-peptide (as defined for each experiment; see Table 1), and dissolved in analyte buffer (HBS-P—Zn) […] The following equation was used to compute KDapp values: RU=Bmax/inhib×(peptide(μM))/KDapp+(peptide(μM)). The Bmax/inh value represents the maximal percentage inhibition change in RU (i.e., PHEX-MEPE binding) relative to the “non-peptide” control (0% inhibition of binding), using a constant analyte flow-solution of secPHEX of 250 nM against immobilized MEPE ligand at 6000 RU. […] The control MEPE-RGD peptide had no effect on MEPE-PHEX interactions.

Consider “H-CFSSRRRDDSSESSDSGSSSESDGD-OH [ASARM-peptide]”, for which the “effect on BMP2-mediated mineralization (von Kossa staining)” value in test [1] (BMP2 100 ng/mL, listed as MEPE ASARM-peptide) is recorded as “dose-dependently inhibits”; in test [1] (BMP2 100 ng/mL, listed as MEPE-ASARM-peptide), “inhibit”. Further, the Kd on MEPE-PHEX interaction (250 nM secPHEX, MEPE 6000 RU, read-out: apparent KDapp, solution competition of MEPE-PHEX binding) is approximately 35 µM. Further, the “inhibition of MEPE-PHEX interaction” value on MEPE-PHEX interaction (peptide pre-mixed with secPHEX, MEPE-RGD up to 85 μM) is recorded as “able to inhibit; also recorded: dramatic dose-dependent inhibition”.

B1: Hu-MEPE: purified insect expressed full-length recombinant human MEPE (Matrix Extracellular Phosphoglycoprotein) (protein)
chain: PTFQPQTEKTKQSCVEEQRQEEKNKDNIGFHHLGKRINQELSSKENIVQERKKDLSLSEASENKGSSKSQNYFTNRQRLNKEYSISNKENTHNGLRMSIYPKSTGNKGFEDGDDAISKLHDQEEYGAALIRNNMQHIMGPVTAIKLLGEENKENTPRNVLNIIPASMNYAKAHSKDKKKPQRDSQAQKSPVKSKSTHRIQHNIDYLKHLSKVKKIPSDFEGSGYTDLQERGDNDISPFSGDGQPFKDIPGKGEATGPDLEGKDIQTGFAGPSEAESTHLDTKKPGYNEIPEREENGGNTIGTRDETAKEADAVDVSLVEGSNDIMGSTNFKELPGREGNRVDAGSQNAHQGKVEFHYPPAPSKEKRKEGSSDAAESTNYNEIPKNGKGSTRKGVDHSNRNQATLNEKQRFPSKGKSQGLPIPSRGLDNEIKNEMDSFNGPSHENIITHGRKYHYVPHRQNNSTRNKGMPQGKGSWGRQPHSNRRFSSRRRDDSSESSDSGSSSESDGD
As for B1, in test [1] (BMP2 100 ng/mL, Hu-MEPE above 100 ng/mL), the “effect on BMP2-mediated mineralization at concentrations above 100 ng/mL” value was “very effective inhibitors; also recorded: completely inhibited mineralization”. In addition, the “effect on BMP2-mediated mineralization (von Kossa staining)” value in test [1] (BMP2 100 ng/mL) was “dose dependently and reproducibly inhibited mineralization; also recorded: inhibit; also recorded: highly significant inhibition”. Further, the “mineralization in the absence of BMP2” value in test [1] (no BMP2) was “no effect on mineralization; also recorded: indistinguishable to control cells”.
